Laboratory results as given in US8044098B2, “Use of hydroxybenzoic acids and their esters and analogues for preventing or treating virus infection” (Shenghua Guangzhou Pharmaceutical Science & Technology Co., …, priority 2005, dated 2011).

Experiments:
[1] = test system: secretion of HBsAg by 2.2.15 cells; assay: Inhibition of secretion of HBsAg by Hepatitis B 2.2.15 cell line; assay type: cell-based, HBV; conditions: 1 μmol/ml
Source text: (§1) Hepatitis B 2.2.15 cell line was transfected by HBV DNA (purchased from Institute of Biochemistry and Cell Biology of Shanghai Institute for Biological Sciences or the National Center for Drug Screening) and used as the cell model for screening anti-HBV drug compounds (See Chinese Journal Of Integrated Traditional and Western Medicine on Liver Diseases, 2004, 14(3): 158). The cell culture medium DMEM (GIBCO Company), bovine serum (Hangzhou Siji Qing Biochemical Manufacturer), G418 (GIBCO Company), 3-(4,5-dimethylthiazol-2-yl)-2,5-diphenyltetrazoliumbromide (Sigma), HBsAg and HBeAg diagnostic kit (Shanghai Kehua Bio-engineering Co., Ltd).
(§2) The test compounds listed in Table 3 below were dissolved in a mixture containing 20 ml 1,2-propylene glycol and 15 ml Tween-80 and diluted with sterile saline water to 2 μmol/ml of the test compound. Then it was mixed with the cell culture medium at equal volume to obtain a solution containing 1 μmol/ml of the tested compound. Cells at the concentration of 1×10^5 cells per milliliter were inoculated to a 24-well plate at 1 ml/well. Supernatant from the cell culture mixture was collected three days later for testing.

[2] = test system: secretion of HBeAg by 2.2.15 cells; assay: Inhibition of secretion of HBeAg by Hepatitis B 2.2.15 cell line; assay type: cell-based, HBV; conditions: 1 μmol/ml
Source text: as §1, §2

HPV 6/11 = assay: Drug screening by quantitative fluorescent PCR analysis of HPV 6/11 in condyloma acuminata homogenate; design: species or system human papillomavirus (HPV)
[3] = assay type: physicochemical
Procedure: 20 ml 1,2-propylene glycol, 15 ml Tween-80 and 5 ml azone were mixed together and sterile distilled water was added to bring the volume to 100 ml. The pH value of the solution was adjusted to pH 6.8 with NaOH or HCl to obtain a micro emulsion. 10 g propyl gallate and 10 g gallic acid were dissolved in the micro emulsion, respectively, and mixed well. 10 ml of each micro emulsion was added to a capped transparent glass tube. Both solutions were colorless. The absorbance of the two solutions at 400˜500 nm was measured with spectrophotometry and their absorbance was under 0.15. […] Measured by spectrophotometry again, the absorbance of the gallic acid solution was 1.2 and that of the propyl gallate solution was 0.4.

HPV 16/18 = assay: Drug screening by quantitative fluorescent PCR analysis of HPV 16/18 in condyloma acuminata homogenate; design: species or system human papillomavirus (HPV)
condyloma acuminata = assay: Clinical use in treating condyloma acuminata; assay type: in vivo, human
Source text: Soft hyperplasia with nipple or cauliflower shaped or other shaped warts were found around the skin of the cunnus or anus. The result from 5% acetate acid white test was positive.
Patients selected for the clinical observation must meet the above standards. Plus the diameter of their skin lesions should equal to or be less than 1 cm. […] Patients who had vaginal yeast, trichomonas, bacteria infection or other complications, chronic diseases, serious liver or kidney diseases or women in pregnancy or lactation were not selected. Treatments to women would not be conducted in their menstrual periods.
50 qualified patients were selected and randomly divided into five groups to be tested with p-hydroxybenzoic acid, gallic acid, ethyl p-hydroxybenzoate, propyl gallate and recombinant human interferon α-2β gel, respectively. The samples of p-hydroxybenzoic acid, gallic acid, ethyl p-hydroxybenzoate and propyl gallate were prepared as described in Example 1. The patients were treated with the test sample to the affected areas three times a day, in the morning, at noon and night. The samples were applied to cover the warts and the patients were required to leave the treated areas exposed and not to move for 20 minutes.
Observation time: 8 days. Patients not cured after 8 days would continue to use the test samples for another 12 weeks, and their prognosis was followed during the 12-week period.
Observed items: the location, shape, size and number of warts were carefully observed and recorded before the treatment.
“Recovered”: all skin lesions had disappeared;
“Obvious Effect”: more than 70% of the skin lesions had disappeared;
“Improved”: more than 30% of the skin lesions had disappeared;
“Not Effective”: less than 30% of the skin lesions had disappeared or the original skin lesions didn't change or even enlarged.

HSV infection = assay: External treatment of HSV infection in clinical tests; assay type: in vivo, human; conditions: patients with HSV infection, applied on affected areas three times a day
Source text: Twenty-two patients who were clinically diagnosed with HSV infection were randomly selected and divided into two groups. Acyclovir ointment and micro emulsion containing propyl gallate prepared as described in Example 1 were applied to the two groups, respectively, on the affected areas of the patients three times a day.

[4] = 2.2.15 cells, supernatant collected three days later
[5] = 24 hours after adding the test compound
[6] = number of patients, more than 70% of the skin lesions disappeared

O=C(O)c1cc(O)c(O)c(O)c1 [Gallic acid]
effect on the secretion of HBsAg by the 2.2.15 cells (in words) [1]: had inhibition effect | HBsAg Inhibition rate [1, 4]: 8.83% | effect on the secretion of HBeAg by the 2.2.15 cells (in words) [2]: had inhibition effect | HBeAg Inhibition Rate [2, 4]: 9.40% | HPV 6/11 Virus (copies/ml) (HPV 6/11; 50 μl 10% micro emulsion + 50 μl HPV sample homogenate, 37° C., 24 hours, saline control 1.45 × 10^6): 0 copies/ml | HPV 6/11 detected by FQ-PCR (in words) (HPV 6/11; [5]): no HPV 6/11 or HPV 16/18 was detected | colour of solution, initial ([3]; micro emulsion pH 6.8, freshly prepared): colorless | absorbance after 30 days ([3]; micro emulsion pH 6.8, kept at room temperature for 30 days, 400˜500 nm): 1.2 | colour of solution after 30 days ([3]; micro emulsion pH 6.8, room temperature for 30 days): light brown | HPV 16/18 Virus (copies/ml) (HPV 16/18; 50 μl 10% micro emulsion + 50 μl HPV sample homogenate, 37° C., 24 hours, saline control 1.40 × 10^5): 0 copies/ml | HPV 16/18 detected by FQ-PCR (in words) (HPV 16/18; [5]): no HPV 6/11 or HPV 16/18 was detected | treatment effect compared to recombinant human interferon α-2β gel (condyloma acuminata; condyloma acuminata patients, 10% micro emulsion): more apparent treatment effect | Recovered, 1-4 days (condyloma acuminata; number of patients (50 patients in five groups), 10% micro emulsion on affected areas three times a day, all skin lesions disappeared): 2 | Improved (condyloma acuminata; number of patients, more than 30% of the skin lesions disappeared, observation 8 days): 4 | Obvious Effect, 1-4 days (condyloma acuminata; [6]): 3 | Obvious Effect, 5-8 days (condyloma acuminata; [6]): 1 | average time for recovery (HSV infection): 3 days
